Assay [1] has as its system S. aureus ATCC 29213. Kind of assay: Synergy disc diffusion assay (SDDA). The format is cell-based, Staphylococcus aureus. As to conditions: for SDDA area increase / SDDA increase: quinone + BP; for SDDA area increase: over larger single-compound zone; for SDDA increase: over larger single-compound zone diameter; for SDDA with BP: quinone combined with BP on one disc, 200 μg of each (thymoquinone 50 μg). The source says:
1. Staphylococcus aureus—the principal staphylococcal test micro-organism used in these studies was Staphylococcus aureus ATCC 29213. This strain is the one recommended for QC/QA purposes in Minimum Inhibitory Concentration (MIC) assays by the US Clinical and Laboratory Standards Institute (formerly the NCCLS), an FDA-recognised body. S. aureus ATCC 29213 is susceptible to beta-lactam antibiotics such as methicillin and to many other antibiotics in clinical use worldwide today. The staphylococci and enterococci were cultured and maintained on Mueller-Hinton Medium (agar and broth) at pH 7.2; they were incubated aerobically at 37° C. for 24 hours. This is a variation on the DDA method, in which two compounds are tested together for their combined antimicrobial activity. It provides a qualitative indication as to whether the compounds are likely to interact synergistically. Two test compounds A and B were placed on a single paper disc and the above described DDA procedure repeated. An increase in diameter of the zone of inhibition, compared to the greater of the zone diameters for the two compounds individually, was taken to indicate potential antimicrobial synergy. […] The larger the increase in zone size, the greater the likelihood of a synergistic interaction between the two test compounds. Each of the quinones was then subjected, in combination with BP, to the SDDA assay described above. In each case, increases in zone diameter (mm) and area (%) were measured with respect to those observed for the compound showing the larger zone diameters during the previous disc diffusion assays on the individual compounds. […] The exceptions were the thymoquinone assays, in which only 50 μg of the benzoquinone was used.
In general terms: In agar diffusion tests the substance spreads into inoculated agar from a disc or well.

The subject of assay [2] is S. aureus ATCC 29213. Description: MBC assay. The format is cell-based, Staphylococcus aureus. Particulars: S. aureus ATCC 29213; Table 1 (Example 1). Here is the method: 1. Staphylococcus aureus—the principal staphylococcal test micro-organism used in these studies was Staphylococcus aureus ATCC 29213. This strain is the one recommended for QC/QA purposes in Minimum Inhibitory Concentration (MIC) assays by the US Clinical and Laboratory Standards Institute (formerly the NCCLS), an FDA-recognised body. […] The staphylococci and enterococci were cultured and maintained on Mueller-Hinton Medium (agar and broth) at pH 7.2; they were incubated aerobically at 37° C. for 24 hours. This assay, normally carried out after an MIC assay, determines the minimum concentration of a compound that is lethal to the micro-organism being tested. […] These samples were then individually sub-cultured on non-selective agar medium, under the incubation conditions described above. Following incubation they were examined visually for bacterial growth.

The subject of assay [3] is S. aureus ATCC 29213. Description: MIC assay. The format is cell-based, Staphylococcus aureus. Particulars: S. aureus ATCC 29213; Table 1 (Example 1). Here is the method: 1. Staphylococcus aureus—the principal staphylococcal test micro-organism used in these studies was Staphylococcus aureus ATCC 29213. This strain is the one recommended for QC/QA purposes in Minimum Inhibitory Concentration (MIC) assays by the US Clinical and Laboratory Standards Institute (formerly the NCCLS), an FDA-recognised body. […] The staphylococci and enterococci were cultured and maintained on Mueller-Hinton Medium (agar and broth) at pH 7.2; they were incubated aerobically at 37° C. for 24 hours. This is a standard international method for quantitatively assessing the antimicrobial activity of a compound in a liquid medium. The method used a 96-well microtitre plate, capable of holding about 200 μl of liquid per well. […] The culture media were as described above for the relevant test organisms. The wells were inoculated with a liquid suspension of freshly grown micro-organism and incubated under the conditions described above. After incubation, the microtitre plate was examined visually (with the aid of a light box) for cell pellets in and/or opaque wells, which would indicate microbial growth. The MIC value was recorded as the lowest concentration of test compound required to inhibit microbial growth, ie, the lowest concentration for which the liquid in the well remained clear. The assays were conducted in duplicate and included both negative (culture medium only) and positive (culture medium, diluting solvent and inoculum) controls.

Assay [4] concerns S. aureus ATCC 29213. Description: Disc diffusion assay (DDA). Format: cell-based, Staphylococcus aureus. As to conditions: Table 1, zone diameter, 200 μg per disc (thymoquinone 50 μg). The source says: 1. Staphylococcus aureus—the principal staphylococcal test micro-organism used in these studies was Staphylococcus aureus ATCC 29213. This strain is the one recommended for QC/QA purposes in Minimum Inhibitory Concentration (MIC) assays by the US Clinical and Laboratory Standards Institute (formerly the NCCLS), an FDA-recognised body. S. aureus ATCC 29213 is susceptible to beta-lactam antibiotics such as methicillin and to many other antibiotics in clinical use worldwide today. The staphylococci and enterococci were cultured and maintained on Mueller-Hinton Medium (agar and broth) at pH 7.2; they were incubated aerobically at 37° C. for 24 hours. A sterile paper disc was impregnated with a sample of the test compound and a minimum of 30 minutes allowed for the solvents to evaporate as far as possible. The disc was then placed on an agar plate onto which the test micro-organism had been inoculated. The plate was then incubated under the conditions described above, following which it was examined visually for signs of bacterial growth. If the test compound had antimicrobial activity, a circular zone of no growth would be obtained around the disc. The diameter of this zone of “inhibition” was measured using a ProtoCOL™ automated zone sizer (Synbiosis, Cambridge, UK). In general, a greater diameter and/or area of the zone of inhibition indicates a greater antimicrobial activity in the relevant test compound, although other factors such as test compound mobility through the agar gel may also influence the result. […] The exceptions were the thymoquinone assays, in which only 50 μg of the benzoquinone was used.

Assay [5] deals with S. aureus ATCC 29213. Kind of assay: Supplemented disc diffusion assay (DDA + salt, lipid or blood). Format: cell-based, Staphylococcus aureus. As to conditions: 200 μg per disc (thymoquinone 50 μg); for DDA + blood: agar supplemented with blood; for DDA + lipid: agar supplemented with lipid; for DDA + salt: agar supplemented with salt. Here is the method: The staphylococci and enterococci were cultured and maintained on Mueller-Hinton Medium (agar and broth) at pH 7.2; they were incubated aerobically at 37° C. for 24 hours. A sterile paper disc was impregnated with a sample of the test compound and a minimum of 30 minutes allowed for the solvents to evaporate as far as possible. The disc was then placed on an agar plate onto which the test micro-organism had been inoculated. The plate was then incubated under the conditions described above, following which it was examined visually for signs of bacterial growth. If the test compound had antimicrobial activity, a circular zone of no growth would be obtained around the disc. The diameter of this zone of “inhibition” was measured using a ProtoCOL™ automated zone sizer (Synbiosis, Cambridge, UK). In general, a greater diameter and/or area of the zone of inhibition indicates a greater antimicrobial activity in the relevant test compound, although other factors such as test compound mobility through the agar gel may also influence the result. Either the DDA or the SDDA tests may be carried out using an agar gel supplemented with blood, lipid and/or salt to simulate some of the major components present in human skin and to assess whether these substances might reduce the antimicrobial activity observed for the test compounds. Performance under these conditions can provide a more reliable indication of activity on topical application. […] MIC, MBC and DDA assays, as described above, were carried out using the test compound benzoyl peroxide (BP) and a range of different benzoquinones and hydroquinones. Supplemented DDA assays, in the presence of salt, lipid and blood, were also conducted. […] The exceptions were the thymoquinone assays, in which only 50 μg of the benzoquinone was used.

The test system of assay [6] is P. acnes NCTC 737. Description: Synergy disc diffusion assay (SDDA). The format is cell-based, Propionibacterium acnes. As to conditions: for SDDA area increase / SDDA increase: peroxide + TBHQ; for SDDA area increase: over larger single-compound zone; for SDDA increase: over larger single-compound zone diameter; for SDDA with TBHQ: peroxide combined with TBHQ on one disc, 200 μg of each. Here is the method:
(§1) 2. Propionibacterium spp.—the principal propionibacterial strain used in these studies was Propionibacterium acnes NCTC 737.
(§2) The Propionibacterium spp organisms were cultured and maintained on Wilkins-Chalgren Anaerobe Medium (agar and broth) at pH 6.0; cultures were incubated anaerobically at 37° C. for 72 hours.
This is a variation on the DDA method, in which two compounds are tested together for their combined antimicrobial activity. It provides a qualitative indication as to whether the compounds are likely to interact synergistically.
Two test compounds A and B were placed on a single paper disc and the above described DDA procedure repeated.
Each of the quinones was then subjected, in combination with BP, to the SDDA assay described above.
(§3) For all (S)DDA assays, 200 μg of each compound was loaded onto each disc.

In assay [7] the test system is P. acnes NCTC 737. Description: Disc diffusion assay (DDA). Format: cell-based, Propionibacterium acnes. Particulars: Table 11 (Example 9), 200 μg per disc, mean of three replicates. As for the experimental part:
as §1, §2
A sterile paper disc was impregnated with a sample of the test compound and a minimum of 30 minutes allowed for the solvents to evaporate as far as possible. The disc was then placed on an agar plate onto which the test micro-organism had been inoculated. The plate was then incubated under the conditions described above, following which it was examined visually for signs of bacterial growth. […] The diameter of this zone of “inhibition” was measured using a ProtoCOL™ automated zone sizer (Synbiosis, Cambridge, UK).
The area of the zone of inhibition was calculated from the measured zone diameter (D) using the formula π(D/2)^2.
as §3

SMILES strings stand for the structures. In brackets after ≈: the same amount, converted by molar mass.

A word on the MBC: it is the lowest tested concentration that kills the bacteria rather than only halting them. The MIC is the smallest concentration in the dilution series that meets the test's criterion for growth inhibition. Regarding `Cc1cc(O)ccc1O` [2-methyl-p-hydroquinone], in the assay with S. aureus ATCC 29213 [1], the SDDA area increase came out at 62.56%, the SDDA increase stood at 7.07 mm and the “SDDA with BP” value was 32.77 mm. The compound further returned an MBC with S. aureus ATCC 29213 [2] of 15.6 µg/mL (≈ 126 µM). The compound further came in with a minimal inhibitory concentration (MIC) against S. aureus ATCC 29213 [3] of 15.6 µg/mL (≈ 126 µM). Further, the DDA in the assay on S. aureus ATCC 29213 [4] was found to be 25.70 mm. Besides, in the assay on S. aureus ATCC 29213 [5], the “DDA + blood” value came to 18.74 mm, the “DDA + lipid” value is reported as 24.68 mm and the “DDA + salt” value is reported as 22.49 mm.
`[Ca+2].[O-][O-]` [calcium peroxide]: in the assay with P. acnes NCTC 737 [6], the SDDA area increase was 544.48%, the SDDA increase amounted to 23.08 mm and the “SDDA with TBHQ” value amounted to 38.08 mm. Besides, the DDA in the assay on P. acnes NCTC 737 [7] is given as 0.0 mm.
For `[Mg+2].[O-][O-]` [magnesium peroxide], in the assay on P. acnes NCTC 737 [6], the SDDA area increase is 523.33%, the SDDA increase worked out at 22.45 mm and the “SDDA with TBHQ” value came to 37.45 mm. In the assay on P. acnes NCTC 737 [7], the DDA is 0.0 mm.
In the same order, the values of `[Na+].[Na+].[O-][O-]` [sodium peroxide] are 128.21%, 7.66 mm, 22.66 mm and 0.0 mm.
`CC(C)(C)OO` [t-butyl hydroperoxide]: in the assay with P. acnes NCTC 737 [6], the SDDA area increase was 188.77%, the SDDA increase is given as 10.49 mm and the “SDDA with TBHQ” value is 25.49 mm. The compound further came in with a DDA with P. acnes NCTC 737 [7] of 0.0 mm.
For `Cc1cc(O)c(C(C)C)cc1O` [thymohydroquinone, 2-iso-propyl-5-methyl-p-hydroquinone], in the assay with S. aureus ATCC 29213 [1], the SDDA area increase was 70.26%, the SDDA increase was 17.56 mm and the “SDDA with BP” value is listed as 75.18 mm. In addition, the minimal bactericidal concentration (MBC) in the assay on S. aureus ATCC 29213 [2] came to 15.6 µg/mL (≈ 93.9 µM). The MIC against S. aureus ATCC 29213 [3] worked out at 7.8 µg/mL (≈ 46.9 µM). In addition, in the assay on S. aureus ATCC 29213 [4], the DDA is recorded as 57.62 mm. For the same compound, in the assay on S. aureus ATCC 29213 [5], the “DDA + blood” value came out at 10.27 mm, the “DDA + lipid” value was determined as 41.71 mm and the “DDA + salt” value was determined as 57.59 mm.
